Converted amounts (≈) assume the structure as drawn. Where two headings read alike, the source gives them in different places.
Tests used:
[1] = Comparative solubility in H2O with pH adjustment by HCl or NaOH; assay type: physicochemical; settings: water, read-out: solubility in H2O, Conc
Procedure: The relative solubilities of the free base form and the acetate and glycolate salt forms of Compound A were analysed and the results are show in the table below. Solutions were titrated with addition of HCl or NaOH for pH adjustment. The improved aqueous solubilities of the acetate and glycolate salt forms relative to the free base form of Compound A make the acetate and glycolate salts of Compound A more suitable for subcutaneous injection or infusion.

human 5-HT2C receptor = target: T1, human 5-HT2C receptor (Homo sapiens, UniProt P28335); test: 3H-Mesulergine binding to hr5-HT2C CHO cell membranes; settings: 3H-Mesulergine 1 nM, kind of constant not stated
T1 construct: purchased Biosignal Packard, USA; host or cells: CHO cell membranes
T1 sequence (P28335 33-458): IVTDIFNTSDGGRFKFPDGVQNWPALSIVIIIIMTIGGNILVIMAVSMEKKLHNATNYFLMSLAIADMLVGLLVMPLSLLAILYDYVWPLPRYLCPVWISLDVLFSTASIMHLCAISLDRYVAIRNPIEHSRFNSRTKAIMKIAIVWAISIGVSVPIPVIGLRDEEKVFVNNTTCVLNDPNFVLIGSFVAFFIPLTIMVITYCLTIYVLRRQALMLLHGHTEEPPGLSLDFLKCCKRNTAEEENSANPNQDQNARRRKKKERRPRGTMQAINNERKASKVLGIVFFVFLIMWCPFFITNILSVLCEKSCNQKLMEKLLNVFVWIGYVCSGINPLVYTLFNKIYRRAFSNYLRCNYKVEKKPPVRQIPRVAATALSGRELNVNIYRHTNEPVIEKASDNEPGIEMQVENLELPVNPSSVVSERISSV
Procedure: Non-specific binding is evaluated in the presence of 1 µM Mesulergine. Fifty µL each of membrane, ligand and compound in a total volume of 250 µL are incubated in 96-well plates for 60 min at 22° C in a buffer containing 50 mM Tris, 0.1% ascorbic acid, 10 µM Pargyline, pH 7.7. The plates are filtrated, washed 3 times in ice-cold 50 mM Tris, dred and measured in Topcount.

β2 AR = β2 AR (Homo sapiens, UniProt P07550); test: cAMP functional assay in CHO cells stably transfected with human β2 adrenoceptor (Test 1); settings: for Emax: CHO, read-out: CHO cells Emax % β2 AR, cAMP, compared to isoprenaline; for EC50: CHO cells EC50 β2 AR, cAMP, CHO cells stably transfected with human β2 adrenoceptor
Human skMC = test: cAMP response in primary human skeletal muscle cells (differentiated skeletal myotubes); settings: read-out: Primary cells; for EC50: cAMP response EC50 Human skMC, differentiated skeletal myotubes; for Emax: cAMP response Emax % Human skMC
Serotonin 5-HT2C = target: T2, Serotonin 5-HT2C (Homo sapiens, UniProt P28335); test: Aequorin agonist assay in CHO-K1 cells expressing recombinant Serotonin 5-HT2Cne and Gα16; assay type: cell-based; settings: for Emax: CHO-K1, percentage of the activity of the reference agonist at its EC100
T2 construct: expressed in transfected cells; host or cells: CHO-K1 coexpressing mitochondrial apoaequorin and Gα16
T2 sequence (P28335 33-458): T1 sequence (P28335 33-458)

β1 AR = β1 AR (Homo sapiens, UniProt P08588); test: cAMP functional assay in CHO cells stably transfected with human β1 adrenoceptor (Test 1); settings: for Emax: CHO, read-out: CHO cells Emax % β1 AR
rats = test: Heart rate in rats after s.c. bolus; assay type: in vivo, Wistar Han (W-H) IGS rats; settings: up to 0.3 mg/kg, Figures 3a-3c
From the text: Wistar Han (W-H) IGS (International Genetic Standard) rats (Crl:WI(Han)) were purchased from Charles River Laboratories. Femoral arterial and venous catheters were chronically implanted and exteriorized through a spring tether-swivel system and housed in specialized cages. Arterial catheter was connected to a pressure transducer to continuously measure pulse pressure, mean arterial pressure and heart rate, which was derived from the blood pressure signal, via a digital data acquisition system. Compounds were administered via s.c catheter implanted through the skin buttun. Values are expressed as means ± SEM (n=3).

[2] = Steady state plasma concentration in the rat minipump study; assay type: in vivo, Male Wistar Han IGS rats; settings: rats
Procedure: Rats were acclimated to the facility for 7 days. […] Food and water were provided ad libitum. […] Body weights were measured twice per week. […] Brain weight was used for normalization of organ weights. Results are expressed as mean +/-SEM.

[3] = tested on: skeletal muscle and heart; settings: rats
Sino-Atrial node = Sino-Atrial node beating rate in isolated rabbit right atrium; set-up: species or system New Zealand white female rabbits; settings: n=6
Rat skMC = test: cAMP response in primary rat skeletal muscle cells
[4] = tested on: isolated Langendorff perfused rabbit hearts; test: Automaticity in isolated Langendorff perfused rabbit hearts
α1A AR = target: T3, α1A AR (Homo sapiens, UniProt P35348); test: Ca2+ FLIPR assay in human adrenergic Alpha1A CHO-K1 cell line (Test 1); assay type: cell-based; settings: summary in words
T3 construct: host or cells: CHO-K1
T3 sequence (P35348 1-466): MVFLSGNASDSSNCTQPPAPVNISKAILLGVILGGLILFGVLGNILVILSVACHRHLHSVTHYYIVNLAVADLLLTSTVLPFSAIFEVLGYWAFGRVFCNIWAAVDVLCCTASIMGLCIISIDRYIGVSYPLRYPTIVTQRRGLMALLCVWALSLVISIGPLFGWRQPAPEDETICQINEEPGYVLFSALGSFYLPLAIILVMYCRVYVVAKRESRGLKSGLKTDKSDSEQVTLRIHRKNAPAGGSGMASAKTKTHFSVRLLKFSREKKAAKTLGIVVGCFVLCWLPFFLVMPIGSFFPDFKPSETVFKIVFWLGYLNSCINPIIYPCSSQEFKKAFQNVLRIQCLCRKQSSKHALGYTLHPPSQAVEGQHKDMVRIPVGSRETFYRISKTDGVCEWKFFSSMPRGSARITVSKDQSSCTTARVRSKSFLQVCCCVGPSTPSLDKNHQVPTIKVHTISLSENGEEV

Rhesus monkeys = test: Heart rate in rhesus monkeys after single s.c. administration; assay type: in vivo; settings: s.c. bolus, up to 0.03 mg/kg, Figures 4a, 4b
Procedure: Rhesus monkeys, 24 females with body weight around 4 to 8 kg, were randomized into 4 groups of n=6. The animals were restrained on a chair up to 4 hours after single subcutaneous administration of compounds, and then returned to their pens. Heart rates were measured using a Surgivet V3304 device. Values are expressed as means ± SEM (n=6).

Rat cardiomyocytes = test: cAMP response in primary rat cardiomyocytes; settings: Cardiomyocyte
Adrenergic beta1 = Adrenergic beta1 (Cavia porcellus, UniProt H0W3H1); test: Left atrium contraction assay (Ricerca, Adrenergic beta1); set-up: species or system Dunkin Hartley Guinea pig
[5] = Homo sapiens, Myotube, compared to formoterol

Sequence of β1 AR (P08588 whole entry): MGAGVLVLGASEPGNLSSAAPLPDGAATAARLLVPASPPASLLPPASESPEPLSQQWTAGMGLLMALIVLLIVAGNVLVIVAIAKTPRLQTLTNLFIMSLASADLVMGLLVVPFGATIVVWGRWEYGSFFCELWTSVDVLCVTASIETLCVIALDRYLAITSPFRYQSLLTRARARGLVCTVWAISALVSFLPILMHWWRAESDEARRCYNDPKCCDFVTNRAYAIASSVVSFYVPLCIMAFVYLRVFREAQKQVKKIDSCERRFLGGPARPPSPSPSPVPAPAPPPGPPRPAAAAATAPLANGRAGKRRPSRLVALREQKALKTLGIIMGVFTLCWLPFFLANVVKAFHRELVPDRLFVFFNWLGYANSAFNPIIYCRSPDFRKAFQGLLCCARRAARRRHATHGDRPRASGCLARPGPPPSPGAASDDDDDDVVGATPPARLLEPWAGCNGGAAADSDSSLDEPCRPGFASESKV
Sequence of β2 AR (P07550 whole entry): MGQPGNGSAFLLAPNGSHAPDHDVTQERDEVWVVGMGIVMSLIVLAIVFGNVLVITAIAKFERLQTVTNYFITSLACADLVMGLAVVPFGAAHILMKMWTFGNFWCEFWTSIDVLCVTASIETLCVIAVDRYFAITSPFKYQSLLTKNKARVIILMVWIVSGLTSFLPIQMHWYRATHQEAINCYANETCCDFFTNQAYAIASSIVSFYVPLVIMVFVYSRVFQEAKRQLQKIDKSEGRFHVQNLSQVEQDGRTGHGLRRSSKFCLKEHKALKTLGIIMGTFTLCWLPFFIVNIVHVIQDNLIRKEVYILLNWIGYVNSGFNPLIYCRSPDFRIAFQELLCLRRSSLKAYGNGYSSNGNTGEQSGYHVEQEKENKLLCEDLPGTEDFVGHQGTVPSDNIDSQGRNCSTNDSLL
Sequence of Adrenergic beta1 (H0W3H1 1-470): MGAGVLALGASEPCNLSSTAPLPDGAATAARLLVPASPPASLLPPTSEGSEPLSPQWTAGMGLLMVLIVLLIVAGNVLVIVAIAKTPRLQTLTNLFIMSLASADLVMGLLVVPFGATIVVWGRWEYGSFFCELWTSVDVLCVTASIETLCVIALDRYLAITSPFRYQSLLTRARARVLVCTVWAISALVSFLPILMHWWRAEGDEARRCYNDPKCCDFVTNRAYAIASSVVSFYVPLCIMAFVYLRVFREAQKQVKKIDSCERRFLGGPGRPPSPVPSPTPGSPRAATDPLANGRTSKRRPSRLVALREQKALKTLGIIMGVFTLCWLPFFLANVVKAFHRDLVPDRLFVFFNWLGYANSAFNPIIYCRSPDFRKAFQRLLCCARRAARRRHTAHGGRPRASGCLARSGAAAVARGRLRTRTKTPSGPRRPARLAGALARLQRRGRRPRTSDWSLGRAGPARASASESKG

Structure (SMILES): CCCCOc1ccc(CC(C)(C)NC[C@H](O)c2cc(O)cc3[nH]c(=O)sc23)cc1.O=C(O)CO [Compound A glycolate salt, (R)-7-(2-(1-(4-butoxyphenyl)-2-methylpropan-2-ylamino)-1-hydroxyethyl)-5-hydroxybenzo[d]thiazol-2(3H)-one glycolate salt]
- solubility ([1]; pH 5.1, aqueous buffer): 13100 µg/mL
- solubility ([1]; pH 5.3, aqueous buffer): 6390 µg/mL
- solubility ([1]; pH 5.4, aqueous buffer): 4470 µg/mL

Structure (SMILES): CCCCOc1ccc(CC(C)(C)NC[C@@H](O)c2cc(O)cc3[nH]c(=O)sc23)cc1 [Compound B]
- Serotonin 5-HT2C Binding (human 5-HT2C receptor): 0.8 µM
- Emax (β2 AR): 83%
- EC50 (Human skMC; Homo sapiens, Myotube): 280 nM
- Emax (Human skMC; [5]): 100%
- Emax (Serotonin 5-HT2C): 99%

Structure (SMILES): CCCCOc1ccc(CC(C)(C)NCC(O)c2cc(O)cc3[nH]c(=O)sc23)cc1 (racemic) [Compound A/B]
- Serotonin 5-HT2C Binding (human 5-HT2C receptor): 1.7 µM
- Emax (β1 AR): 38%
- Emax (β2 AR): 87%
- EC50 (Human skMC; Homo sapiens, Myotube): 0.63 nM
- Emax (Human skMC; [5]): 100%
- Emax (Serotonin 5-HT2C): 113%

Structure (SMILES): CCCCOc1ccc(CC(C)(C)NC[C@H](O)c2cc(O)cc3[nH]c(=O)sc23)cc1 [Compound A, (R)-7-(2-(1-(4-butoxyphenyl)-2-methylpropan-2-ylamino)-1-hydroxyethyl)-5-hydroxybenzo[d]thiazol-2(3H)-one]
- heart rate change (rats): less heart rate increases compared to formoterol
- Serotonin 5-HT2C Binding (human 5-HT2C receptor): 11 µM
- solubility ([1]; aqueous buffer, pH 7.0): 50 µg/mL (≈ 116 µM)
- solubility ([1]; pH 6.2, aqueous buffer): 270 µg/mL (≈ 627 µM)
- solubility ([1]; pH 7.3, aqueous buffer): < 10 µg/mL
- solubility ([1]; pH 7.8, aqueous buffer): < 10 µg/mL
- steady state plasma concentration ([2]; 0.01 mg/kg/day s.c. minipump): ~ 0.2 nM
- steady state concentration ([2]; 0.1 mg/kg/day s.c. minipump): ~ 2 nM
- EC50 (β1 AR): 560 nM
- Emax (β1 AR): 32%
- intrinsic efficacy on β1 AR (β1 AR; summary in words): very low intrinsic efficacy
- skeletal muscle hypertrophy ([3]; 0.01 mg/kg/day s.c. minipump, 28 days, significant): 11%
- heart histopathology ([3]; even at 0.1 mg/kg/day s.c. minipump, 28 days): no findings
- skeletal muscle mass and heart mass increase (Figure 1) ([3]; s.c. minipump 28 days, formoterol 0.003-0.03, Compound A 0.01-0.1 mg/kg/day): induces skeletal muscle hypertrophy with minimum impact on heart mass
- Sino-Atrial node beating rate, maximum increase (Sino-Atrial node): +6.2%
- EC50 (Rat skMC; Myotube, read-out: Primary cells, cAMP response EC50 Rat skMC): 3.4 nM
- Emax (Rat skMC; read-out: Primary cells, cAMP response Emax % Rat skMC): 98%
- effects on the pacemaker activity ([4]; compared to Formoterol, Figures 2a, 2b): less direct effects
- Automaticity, maximum increase ([4]; isolated rabbit heart, n=3): +17%
- EC50 (β2 AR): 5.6 nM
- Emax (β2 AR): 88%
- activity on α1A AR (α1A AR): no activity
- heart rate change (Rhesus monkeys): less heart rate increase compared to formoterol
- Emax (Human skMC; [5]): 96%
- EC50 (Human skMC; listed as Compound A (R)): 0.7 nM
- EC50 (Rat cardiomyocytes; read-out: Primary cells, cAMP response EC50 Rat cardiomyocytes): 5.7 nM
- Emax (Rat cardiomyocytes; read-out: Primary cells, cAMP response Emax % Rat cardiomyocytes): 71%
- fold less active on 5-HT2C compared to the racemate or the (S) enantiomer (Serotonin 5-HT2C): over 10 fold
- fold less active on 5-HT2C compared to β2 AR agonist activity (Serotonin 5-HT2C; 5-HT2C EC50 versus β2 AR EC50 (5.6 nM)): 50 fold
- Emax (Serotonin 5-HT2C): 83%
- EC50 (Serotonin 5-HT2C; agonist mode, aequorin luminescence): 280 nM
- EC50 (Adrenergic beta1; guinea pig left atria, n=2): > 10000 nM
- effects on left atrium contraction (Adrenergic beta1; up to 10 µM): no effects

Structure (SMILES): CC(=O)O.CCCCOc1ccc(CC(C)(C)NC[C@H](O)c2cc(O)cc3[nH]c(=O)sc23)cc1 [Compound A (R) acetate salt, (R)-7-(2-(1-(4-butoxyphenyl)-2-methylpropan-2-ylamino)-1-hydroxyethyl)-5-hydroxybenzo[d]thiazol-2(3H)-one acetate salt]
- solubility ([1]; aqueous buffer, pH 6.0): 1110 µg/mL
- solubility ([1]; pH 5.9, aqueous buffer): 1330 µg/mL
- solubility ([1]; pH 6.1, aqueous buffer): 1100 µg/mL
- solubility ([1]; pH 6.2, aqueous buffer): 550 µg/mL
- EC50 (β2 AR): 2.5 nM
- Emax (Human skMC; Homo sapiens, Myotube, compared to isoprenaline): 93%
- EC50 (Human skMC; acetate salt): 1.7 nM

Reference: patent publication EP2890687B1, “SALTS OF BENZOTHIAZOLONE COMPOUND AS BETA-2-ADRENOCEPTOR AGONIST” (priority 2012, dated 2014)
